Values after ≈ are worked out from the molar mass of the structure shown. No end group written: not given here.
How the values were obtained:
[1] = in vitro; conditions: human, WI38 normal lung fibroblast cells
[2] = test system: human leukocyte (WBC) cells; assay: Stimulation and proliferation of leukocytes, Alamar Blue; type: cell-based; conditions: 48 hours
Description: In vitro viability of human leukocyte cells in the presence of different peptides at different concentrations was determined by an Alamar Blue protocol. Alamar Blue (Promega, Madison, Wis.) is an indicator dye, formulated to measure quantitatively the proliferation and cytotoxicity of the cells. The dye consists of an oxidation-reduction (redox) indicator that yields a calorimetric change and a fluorescent signal in response to cellular metabolic activity.
Assay protocol: Blood from a human was drawn and centrifuged at 1500 rpm for 15 minutes at room temperature. The buffy coat cells at the plasma-red blood cell interface were aspirated. Buffy coat cells (mainly lymphocyte cells) were then transferred into 15 ml centrifuge tubes containing 5 ml of RPMI-1640 medium+10% Fetal Bovine Serum (Gibco, Grand Island, N.Y.). Additional medium was added to the tubes to bring the volume up to 10 ml. The buffy coat suspension was then carefully layered on 5 ml of Histopaque (Sigma Chemical Co., St. Louis, Mo.) and centrifuged at 1500 rpm for 30 minutes at room temperature. The interface which is mostly PBMCs (peripheral mononuclear cells) was aspirated and transferred to a 15 ml conical centrifuge tube and, resuspended in 2 ml cold RPMI-1640 and brought up to 15 ml with cold RPMI-1640 medium. Cells were centrifuged at 1500 rpm for 10 minutes. The supernatant was then aspirated and discarded. The cell pellet was re-suspended in 1 ml of cold RPMI 1640 and brought up to 15 ml with RPMI medium. This step was repeated twice, except that in the last step, the cells were resuspended with 1 ml of cold RPMI-1640 medium and cell counts were performed with a hemocytometer according to the Sigma cell culture catalogue.
Pokewood mitogen was used as a control along with positive and negative controls. Negative control cells were killed with 70% methanol. Positive (+) control cells were incubated in RPMI medium (untreated). […] of AlamarBlue was added to the cells, and readings were taken after 24 hours, 48 hours, 72 hours, and 96 hours using a fluorimeter (excitation 544/transmission 590 nm).
Calculations were performed using the following formula. The peptide treated sample and positive control were adjusted for negative control. [formula]
Using the protocol described immediately above, about 100-150 peptides were screened for their stimulatory and/or inhibitory actions upon the growth of human leukocyte (“WBC”) cells as compared to the growth of untreated positive control cells.
The Alamar Blue stain used in the protocol permeates both cell and nuclear membranes, and is metabolized in the mitochondria to cause the change in color. The resulting fluorometric response is therefore a result of total mitochondrial activity caused by cell stimulation and/or mitosis (cell proliferation).

[3] = test system: human red blood cells (RBC); assay: in vitro; type: cell-based; conditions: for Peptide toxicity RBC LD/50: human red blood cells; for LD50: hemolytic assay, concentration at 50% hemolysis, 1 hour at 37° C.
[4] = test system: SW480; assay: Anti-cancer assay, MTT, LD50; type: cell-based; conditions: SW480 colon adenocarcinoma line, 24 hours with peptide
Description: (§1) Numbers are LD50 values (μg/mL).

[5] = test system: H1299; assay: Anti-cancer assay, MTT, LD50; type: cell-based; conditions: 24 hours with peptide, lung large cell carcinoma
Description: as §1

[6] = test system: BMKC; assay: Anti-cancer assay, MTT, LD50; type: cell-based; conditions: BMKC cloned melanoma line, 24 hours with peptide
Description: as §1

[7] = test system: HeLaS3; assay: Anti-cancer assay, MTT, LD50; type: cell-based; conditions: 24 hours with peptide, cervical carcinoma
Description: as §1

[8] = test system: PC3; assay: Anti-cancer assay, MTT, LD50; type: cell-based; conditions: 24 hours with peptide, prostate adenocarcinoma
Description: as §1

[9] = test system: MCF7; assay: Anti-cancer assay, MTT, LD50; type: cell-based; conditions: MCF7 breast adenocarcinoma line, MTT, 24 hours with peptide
Description: as §1

[10] = test system: Staphylococcus aureus ATCC 6538; assay: Antimicrobial assay I, MIC by OD measurement; type: cell-based; conditions: 37° C. for 24 hours, absorbance 620 nm
[11] = test system: Pseudomonas aeruginosa ATCC 9027; assay: Antimicrobial assay I, MIC by OD measurement; type: cell-based; conditions: 37° C. for 24 hours, absorbance 620 nm
[12] = test system: yeast (Saccharomyces cerevisiae); assay: Antimicrobial assay I, yeast assay in RPMI 1640; type: cell-based; conditions: RPMI 1640 media
[13] = test system: WI38; conditions: MTT, 24 hours with peptide; normal fibroblast line
[14] = Peptide toxicity WI-38 LD/50, human fibroblast cells
[15] = LD50 WI38, WI38 normal lung fibroblast line, MTT, 24 hours with peptide

Compound	CC50 at 24 h [1, 14] [µg/mL]	Peptide treated cell activity Percent stimulation relative to control ([2]; 0.1 ug/ml) [%]	Peptide treated cell activity Percent stimulation relative to control ([2]; 1 ug/ml) [%]	Peptide treated cell activity Percent stimulation relative to control ([2]; 10 ug/ml) [%]	Peptide treated cell activity Percent stimulation relative to control ([2]; 100 ug/ml) [%]	Peptide treated cell activity Percent stimulation relative to control ([2]; 500 ug/ml) [%]	Peptide toxicity RBC LD/50 [3]	CC50 at 24 h [1, 15] [µg/mL]	LD50 SW480 [4] [µg/mL]	H1299 LD50 [5] [µg/mL]	LD50 BMKC [6] [µg/mL]	HeLaS3 LD50 [7] [µg/mL]	PC3 LD50 [8]	LD50 MCF7 [9] [µg/mL]	staph6538 (MIC) [10] [µg/mL]	paerug9027 (MIC) [11]	yeast (MIC or MFC) [12] [µg/mL]	LD50 [3]	WI38 LD50 [13] [µg/mL]	CC50 at 24 h [1] [µg/mL]
VAKLLAKLAKKLL-NH2 [compound 30]	60	74	68	62	13	13	130													
LPKWKVFKKIEKVGRNIRNGIVKAGPAIAVLGEAKALG-NH2 [compound 150]	320	97	101	94	109	112	>1000													
MPKWKVFKKIEKVGRNIRNGIVKAGPAIAVLGEAKALG-NH2 [compound 5]	950	111	115	118	116	101	>1000													
FALKALKKLKKALKKAL-NH2 [compound 115]	130	93	92	37	72	29	780													
FAKLLAKALKKAL-NH2 [compound 66]	210	100	102	97	37	17	500													
FAKKLAKLAKKLLAL-NH2 [compound 20]	12	79	82	78	37	36	350													
FAKALAKLAKKLL-NH2 [compound 58]	25	112	112	98	35	26	300													
CC(C)C[C@H](NC(=O)[C@H](C)NC(=O)[C@H](CC(C)C)NC(=O)[C@H](CCCCN)NC(=O)[C@H](C)NC(=O)[C@H](CC(C)C)NC(=O)[C@H](CCCCN)NC(=O)[C@H](CCCCN)NC(=O)[C@H](C)NC(=O)[C@H](CC(C)C)NC(=O)[C@H](CCCCN)NC(=O)[C@H](C)NC(=O)[C@H](CC(C)C)NC(=O)[C@H](CCCCN)NC(=O)[C@H](CCCCN)NC(=O)[C@H](C)NC(=O)[C@@H](N)Cc1ccccc1)C(N)=O [compound 17]	8 (≈ 4.31 µM)	82	76	61	18	16	200													
FAKLLAKLAKKLL-NH2 [compound 25]	5	78	82	71	14	12	20													
FAKLLFKALKKAL-NH2 [P112, FAKLLFKALKKAL-NH2]								420	800	470	445	660	640 µg/mL	500	50	200 µg/mL	100	> (> indicates greater than 1000)	420	
FAKLLALALKKAL-NH2 [compound 165]		107	109	106	27	22	350													
FAKKFAKKFKKFAKKFAKFAFAF-NH2 [compound 147]		100	94	83	22	20	10													66
MPKEKVFLKIEKMGRNIRN-NH2 [compound 71]	> 1000	101	100	108	109	110	>1000													
FAVGLRAIKRALKKLRRGVRKVAKDL-NH2 [compound 119]	500	88	108	54	117	89	850													
FAKLFAKLAKKFAL-NH2 [P121, FAKLFAKLAKKFAL-NH2]								625	800	460	670	830	> (> indicates greater than 1000)	400	50	> (> indicates greater than 200 μg/mL)	100	> (> indicates greater than 1000)	625	
FAKLLAKLAKAKA-NH2 [compound 61]	> 1000	110	115	116	124	114	>1000													
